# In the NIST ThermoML archive (doi:10.1021/je060257y):
# ± gives the expanded uncertainty stated by the source.
# Experiment: molar heat capacity at constant pressure
# Conditions: 101.33 kPa, Crystal
Compound,molar heat capacity at constant pressure (298.15 K),molar heat capacity at constant pressure (303.15 K),molar heat capacity at constant pressure (308.15 K),molar heat capacity at constant pressure (313.15 K),molar heat capacity at constant pressure (318.15 K),molar heat capacity at constant pressure (323.15 K),molar heat capacity at constant pressure (328.15 K),molar heat capacity at constant pressure (333.15 K),molar heat capacity at constant pressure (338.15 K),molar heat capacity at constant pressure (343.15 K)
O=c1[nH]cc(Br)c(=O)[nH]1 [5-bromouracil],144.7 ± 4.5 J/K/mol,147.9 ± 4.6 J/K/mol,148.5 ± 4.6 J/K/mol,151 ± 4.7 J/K/mol,153.9 ± 4.8 J/K/mol,157.1 ± 4.9 J/K/mol,157.9 ± 4.9 J/K/mol,162 ± 5 J/K/mol,164.3 ± 5.1 J/K/mol,164.8 ± 5.1 J/K/mol
"Cc1cc(=O)n(C)c(=O)n1C [1,3,6-trimethyl-2,4(1H,3H)-pyrimidinedione]",212.6 ± 7.2 J/K/mol,213.5 ± 7.2 J/K/mol,217.1 ± 7.3 J/K/mol,218.5 ± 7.4 J/K/mol,219.8 ± 7.4 J/K/mol,223.4 ± 7.5 J/K/mol,228.3 ± 7.6 J/K/mol,229 ± 7.6 J/K/mol,236.5 ± 7.8 J/K/mol,239.6 ± 7.9 J/K/mol
Cc1c[nH]c(=O)[nH]c1=O [thymine],163 ± 5.3 J/K/mol,168.2 ± 5.4 J/K/mol,173.7 ± 5.6 J/K/mol,178.7 ± 5.7 J/K/mol,184.3 ± 5.8 J/K/mol,189.9 ± 6 J/K/mol,195.2 ± 6.1 J/K/mol,200 ± 6.2 J/K/mol,203.5 ± 6.3 J/K/mol,205.9 ± 6.4 J/K/mol
"Cn1ccc(=O)[nH]c1=O [1-methyl-2,4(1H,3H)-pyrimidinedione]",156.9 ± 4.9 J/K/mol,167.2 ± 5.2 J/K/mol,179.6 ± 5.6 J/K/mol,190.9 ± 5.9 J/K/mol,200.5 ± 6.2 J/K/mol,211.1 ± 6.5 J/K/mol,223 ± 6.9 J/K/mol,235 ± 7.3 J/K/mol,245.9 ± 7.6 J/K/mol,256.1 ± 7.9 J/K/mol
"O=c1[nH]cc(F)c(=O)[nH]1 [5-fluoro-2,4(1H,3H)-pyrimidinedione]",138.3 ± 4.7 J/K/mol,139.1 ± 4.7 J/K/mol,140 ± 4.7 J/K/mol,140.9 ± 4.8 J/K/mol,142 ± 4.8 J/K/mol,143.6 ± 4.8 J/K/mol,145.5 ± 4.9 J/K/mol,147.9 ± 4.9 J/K/mol,150.6 ± 5 J/K/mol,153.8 ± 5.1 J/K/mol
"Cc1cn(C)c(=O)[nH]c1=O [1,5-dimethyluracil]",187.6 ± 5.8 J/K/mol,190 ± 5.9 J/K/mol,190.3 ± 5.9 J/K/mol,194.1 ± 6 J/K/mol,194.8 ± 6 J/K/mol,198.5 ± 6.2 J/K/mol,199.2 ± 6.2 J/K/mol,202 ± 6.3 J/K/mol,203 ± 6.3 J/K/mol,205.2 ± 6.4 J/K/mol
"Cn1c2c(c(=O)n(C)c1=O)CCCC2 [1,3-dimethyl-5,6,7,8-tetrahydroquinazoline-2,4(1H,3H)-dione]",282.9 ± 8.8 J/K/mol,291.2 ± 9 J/K/mol,296.2 ± 9.2 J/K/mol,305.8 ± 9.5 J/K/mol,310.9 ± 9.6 J/K/mol,319.8 ± 9.9 J/K/mol,–,–,–,–
"Cc1cc(=O)[nH]c(=O)n1C [1,6-dimethyluracil]",188.1 ± 7 J/K/mol,194.3 ± 7.2 J/K/mol,197.9 ± 7.2 J/K/mol,202.6 ± 7.3 J/K/mol,206.8 ± 7.4 J/K/mol,211 ± 7.5 J/K/mol,217.9 ± 7.7 J/K/mol,225.1 ± 7.9 J/K/mol,233.1 ± 8 J/K/mol,239.8 ± 8.2 J/K/mol
Cn1c2c(c(=O)n(C)c1=O)CCCCC2,314.5 ± 9.7 J/K/mol,321.6 ± 10 J/K/mol,329 ± 10 J/K/mol,333.6 ± 10 J/K/mol,341.1 ± 11 J/K/mol,347.9 ± 11 J/K/mol,353.3 ± 11 J/K/mol,358.4 ± 11 J/K/mol,363.2 ± 11 J/K/mol,367.3 ± 11 J/K/mol
"CCCc1cc(=O)n(C)c(=O)n1C [2,4(1H,3H)-pyrimidinedione, 1,3-dimethyl-6-propyl-]",287.2 ± 10 J/K/mol,288.8 ± 10 J/K/mol,290.5 ± 10 J/K/mol,292.2 ± 10 J/K/mol,293.9 ± 10 J/K/mol,303.9 ± 10 J/K/mol,–,–,–,–
"CCCCc1cc(=O)n(C)c(=O)n1C [2,4(1H,3H)-pyrimidinedione, 6-butyl-1,3-dimethyl-]",296.4 ± 9.2 J/K/mol,297.9 ± 9.2 J/K/mol,299.4 ± 9.3 J/K/mol,300.9 ± 9.3 J/K/mol,302.1 ± 9.4 J/K/mol,305.3 ± 9.5 J/K/mol,–,–,–,–
"Cc1cc(=O)n(C)c(=O)[nH]1 [3,6-dimethyluracil]",187.4 ± 5.9 J/K/mol,193.1 ± 6 J/K/mol,191.4 ± 6 J/K/mol,193.5 ± 6.1 J/K/mol,198.4 ± 6.2 J/K/mol,200.3 ± 6.2 J/K/mol,202.4 ± 6.3 J/K/mol,203.8 ± 6.3 J/K/mol,206 ± 6.4 J/K/mol,209 ± 6.5 J/K/mol
O=c1[nH]cc(C(F)(F)F)c(=O)[nH]1 [5-(trifluoromethyl)uracil],182.2 ± 5.6 J/K/mol,183.9 ± 5.7 J/K/mol,188.1 ± 5.8 J/K/mol,190.3 ± 5.9 J/K/mol,192.2 ± 6 J/K/mol,195.9 ± 6.1 J/K/mol,198.2 ± 6.1 J/K/mol,199.4 ± 6.2 J/K/mol,204.4 ± 6.3 J/K/mol,206.6 ± 6.4 J/K/mol
"Cc1cc(O)nc(O)n1 [2,4-dihydroxy-6-methylpyrimidine]",162.5 ± 5 J/K/mol,167.2 ± 5.2 J/K/mol,170.2 ± 5.3 J/K/mol,172.2 ± 5.3 J/K/mol,176.9 ± 5.5 J/K/mol,181.4 ± 5.6 J/K/mol,183 ± 5.7 J/K/mol,187.3 ± 5.8 J/K/mol,190.4 ± 5.9 J/K/mol,193 ± 6 J/K/mol
"CCCc1cn(C)c(=O)n(C)c1=O [2,4(1H,3H)-pyrimidinedione, 1,3-dimethyl-5-propyl-]",302.7 ± 9.4 J/K/mol,302.7 ± 9.4 J/K/mol,302.8 ± 9.4 J/K/mol,303 ± 9.4 J/K/mol,306.2 ± 9.5 J/K/mol,308.4 ± 9.6 J/K/mol,–,–,–,–
"Cc1c(C)n(C)c(=O)n(C)c1=O [2,4(1H,3H)-pyrimidinedione, 1,3,5,6-tetramethyl-]",244.5 ± 7.9 J/K/mol,248.8 ± 8 J/K/mol,254 ± 8.1 J/K/mol,256.5 ± 8.2 J/K/mol,260.9 ± 8.3 J/K/mol,266.7 ± 8.4 J/K/mol,271.2 ± 8.6 J/K/mol,276.6 ± 8.7 J/K/mol,282.3 ± 8.8 J/K/mol,291.5 ± 9.1 J/K/mol
"Oc1ncc(Cl)c(O)n1 [5-chloro-2,4-pyrimidinedione]",136.7 ± 4.2 J/K/mol,137.9 ± 4.3 J/K/mol,142.1 ± 4.4 J/K/mol,142.9 ± 4.4 J/K/mol,146.1 ± 4.5 J/K/mol,147.2 ± 4.6 J/K/mol,151.2 ± 4.7 J/K/mol,152.9 ± 4.7 J/K/mol,154.9 ± 4.8 J/K/mol,157 ± 4.9 J/K/mol
